This is an account of results in PMC4354462, “Design, Characterization, and First-In-Human Study of the Vascular Actions of a Novel Biased Apelin Receptor Agonist” (Hypertension, 2015).

Positions of bridges follow the written chain, without caps; N, C: chain ends. Residues, ends and D or L forms follow the SMILES beside them.

One series relates to human hand vein. Kind of series: Aellig hand vein technique study in human volunteers. The format is in vivo. An excerpt: All volunteers (n=12 forearm plethysmography, n=10 hand vein studies) gave written informed consent, and studies adhered to the principles of the Declaration of Helsinki and were approved by the National Research Ethics Service Committee East of England–Cambridge Central (REC 11/EE/0305).

In another series the test system is male Wistar rats. In words: Systemic infusions in anaesthetized rat (haemodynamics, echocardiography). The format is in vivo. The protocol: Blood pressure (BP) was monitored continuously via an intra-arterial line and echocardiography was used after each bolus to determine changes in heart […], stroke volume, cardiac output (from peak velocity and velocity time interval) and respiratory rate. Rectal temperature was monitored throughout. BP was analyzed using absolute change in mean BP from the baseline taken just before the bolus and area under the curve analysis.

Series [1] can be described thus: In vivo plasma half-life of apelin peptides. The following applies: rat, iv. The source says: Rats (230–260 g), anaesthetized with 2% isoflurane, were given a single intravenous bolus (600 nmol) of apelin or MM07 (both n=3).
Series [2] deals with T1, human apelin receptor (Homo sapiens, UniProt P35414).
T1 sequence (P35414 1-380): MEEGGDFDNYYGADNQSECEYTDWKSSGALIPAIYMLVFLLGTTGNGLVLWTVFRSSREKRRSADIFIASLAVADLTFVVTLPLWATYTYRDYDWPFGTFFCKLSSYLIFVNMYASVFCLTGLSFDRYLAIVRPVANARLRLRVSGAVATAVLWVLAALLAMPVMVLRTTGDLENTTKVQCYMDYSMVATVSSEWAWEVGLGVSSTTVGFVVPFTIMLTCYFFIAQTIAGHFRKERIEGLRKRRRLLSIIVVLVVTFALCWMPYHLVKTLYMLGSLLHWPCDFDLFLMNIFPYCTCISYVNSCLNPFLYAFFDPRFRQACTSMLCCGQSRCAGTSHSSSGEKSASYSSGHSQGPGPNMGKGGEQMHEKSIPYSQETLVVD
Kind of series: Competition binding in homogenate of human left ventricle. The following applies: competition for 0.1 nmol/L [Glp65,Nle75,Tyr77][125I]apelin-13; human heart (left ventricle homogenate); n=3.

Series [3] deals with T1, human apelin receptor. In words: Competition binding in CHO-K1-APJ cells. To be noted: competition for [Glp65,Nle75,Tyr77][125I]apelin-13 binding; human apelin receptors in CHO-K1 cells. The protocol:
Initial assays were performed in cells expressing the human apelin receptor (CHO-K1-APJ cells; Cerep, Celle L’Evescault, France). […] Data were analyzed (KELL package; Biosoft, UK) to obtain the dissociation constant KD (concentration of ligand occupying 50% of receptors).

Regarding `CSCC[C@H](NC(=O)[C@@H]1CCCN1C(=O)CNC(=O)[C@H](CCCCN)NC(=O)[C@H](Cc1cnc[nH]1)NC(=O)[C@H](CO)NC(=O)[C@H](CC(C)C)NC(=O)[C@H](CCCNC(=N)N)NC(=O)[C@@H]1CCCN1C(=O)[C@H](CCCNC(=N)N)NC(=O)[C@@H]1CCC(=O)N1)C(=O)N1CCC[C@H]1C(=O)N[C@@H](Cc1ccccc1)C(=O)O` [[Pyr^1]apelin-13, reference compound], in the series on human hand vein (human volunteers), the “adverse events in hand vein study” value is on record as “no adverse events observed”. The respiratory rate result in the series with male Wistar rats (incremental bolus doses 1-300 nmol) is recorded as “Neither peptide caused a significant change”.

As to `CSCC[C@H](NC(=O)[C@@H]1CCCN1C(=O)CNC(=O)[C@H](CCCCN)NC(=O)[C@H](Cc1cnc[nH]1)NC(=O)[C@@H]1CSSC[C@H](N)C(=O)N[C@@H](CCCNC(=N)N)C(=O)N2CCC[C@H]2C(=O)N[C@@H](CCCNC(=N)N)C(=O)N[C@@H](CC(C)C)C(=O)N1)C(=O)N1CCC[C@H]1C(=O)N[C@@H](Cc1ccccc1)C(=O)O` [MM07] (H-CRPRLCHKGPMPF-OH; disulfide 1-6), the half-life – broadly, how long it takes for the measured level to halve – in series [1] came out at 17.4 ± 0.4 min. Moreover, the values for the Kd at human apelin receptor [2] and on human apelin receptor [3] were 172 nM and 300 nM, respectively. In addition, in the series with human hand vein (human, in vivo), the “adverse events in hand vein study” value is “no adverse events observed”.

`CC(=O)NC(C(=O)O)C(C)(C)SN=O` (racemic) [SNAP, S-Nitroso-N-acetyl-D,L-penicillamine]: the “BP response to SNAP” value with male Wistar rats (given after peptide doses, both peptide-treated groups) is “profound fall in BP”.
